Results: the supplement of paper PMC9103864

Columns and labels:
[1] = system: BMSC (primary human bone marrow mesenchymal stromal cells); experiment: absolute EC50 for viability; higher = less sensitive
[2] = system: BMSC (primary human bone marrow mesenchymal stromal cells); experiment: drug sensitivity score (DSS); higher = more sensitive

Row | SMILES | absolute EC50 for viability [1] [µM] | drug sensitivity score [2]
1 | CCCCCCCCCCCCCCCCOP(=O)([O-])OCC[N+](C)(C)C [Miltefosine] | 78.2 | 2.7
2 | O=C(NOC[C@H](O)CO)c1ccc(F)c(F)c1Nc1ccc(I)cc1F [Mirdametinib] | > 1 | 2.1
3 | CO[C@@]12[C@H](COC(N)=O)C3=C(C(=O)C(C)=C(N)C3=O)N1C[C@@H]1N[C@@H]12 [Mitomycin] | > 10 | 0
4 | Clc1ccc(C(c2ccccc2Cl)C(Cl)Cl)cc1 (stereo unspecified) [Mitotane] | > 10 | 0
5 | O=C1c2c(O)ccc(O)c2C(=O)c2c(NCCNCCO)ccc(NCCNCCO)c21 [Mitoxantrone] | 0.185 | 8
6 | CCS(=O)(=O)Nc1ccc(Oc2ccc(F)cc2F)c(-c2cn(C)c(=O)c3[nH]ccc23)c1 [Mivebresib] | 2.71 | 13
7 | Nc1ccccc1NC(=O)c1ccc(CNc2nccc(-c3cccnc3)n2)cc1 [Mocetinostat] | > 10 | 4.7
8 | CCNC(=O)C[C@@H]1N=C(c2ccc(Cl)cc2)c2cc(OC)ccc2-n2c(C)nnc21 [Molibresib] | > 10 | 3.3
9 | N#CCNC(=O)c1ccc(-c2ccnc(Nc3ccc(N4CCOCC4)cc3)n2)cc1 [Momelotinib] | > 10 | 5.1
10 | CC1(C)CNc2cc(NC(=O)c3cccnc3NCc3ccncc3)ccc21 [Motesanib] | > 10 | 0
11 | CCCN(CCC)C(=O)C1=Cc2ccc(-c3ccc(C(=O)N4CCCC4)cc3)cc2N=C(N)C1 [Motolimod] | 9.93 | 0
12 | FC(F)(F)c1ccc(/C=C/c2nc(COc3ccc(CCCCn4ccnn4)cc3)co2)cc1 [Mubritinib] | > 1 | 0.4
13 | Cc1cc(OCc2nnc(SC3CCCC3)n2-c2cccnc2)ccc1-c1ccc(S(C)(=O)=O)cc1 [NMS-873] | 5.4 | 4.1
14 | Nc1ncnc2c1c(-c1cccc(OCc3ccccc3)c1)cn2C1CC(CN2CCC2)C1 (stereo unspecified) [NVP-AEW541] | 6.04 | 4.5
15 | COc1ccc(-c2ccc3ncc4c(c3c2)n(-c2ccc(N3CCNCC3)c(C(F)(F)F)c2)c(=O)n4C)cn1 [NVP-BGT226] | 0.0263 | 17.5
16 | COc1cc2c(cc1OC(C)C)[C@H](c1ccc(Cl)cc1)N(c1ccc(N(C)C[C@H]3CC[C@H](N4CCN(C)C(=O)C4)CC3)cc1)C(=O)C2 [NVP-CGM097] | 4.61 | 9.2
17 | CN[C@@H](C)C(=O)N[C@H](C(=O)N1CCC[C@H]1c1nc(C(=O)c2ccc(F)cc2)cs1)C1CCCCC1 [NVP-LCL161] | > 25 | 0
18 | Cc1cc(-c2ncc(CC(=O)Nc3ccc(-c4cnccn4)cn3)cc2C)ccn1 [NVP-LGK974] | > 10 | 0.4
19 | CC1(N)CCN(c2cnc(-c3cccc(Cl)c3Cl)c(N)n2)CC1 [NVP-SHP099] | > 10 | 0
20 | CC(=O)c1cc2c(o1)C(=O)c1ccccc1C2=O [Napabucasin] | 0.64 | 17.6

Row | SMILES | absolute EC50 for viability [1] [µM] | drug sensitivity score [2]
21 | CC1(C)CCC(c2ccc(Cl)cc2)=C(CN2CCN(c3ccc(C(=O)NS(=O)(=O)c4ccc(N[C@H](CCN5CCOCC5)CSc5ccccc5)c(S(=O)(=O)C(F)(F)F)c4)cc3)CC2)C1 [Navitoclax] | > 10 | 0
22 | CN1C(=O)N[C@H](Cc2c[nH]c3c(Cl)cccc23)C1=O [Necrostatin 2] | > 10 | 0
23 | O=c1ncn2nc(Sc3ccc(F)cc3F)ccc2c1-c1c(Cl)cccc1Cl [Neflamapimod] | > 10 | 0.5
24 | COc1nc(N)nc2c1ncn2[C@@H]1O[C@H](CO)[C@@H](O)[C@@H]1O [Nelarabine] | > 10 | 0
25 | CCOc1cc2ncc(C#N)c(Nc3ccc(OCc4ccccn4)c(Cl)c3)c2cc1NC(=O)/C=C/CN(C)C [Neratinib] | > 1 | 2.3
26 | Cc1cn(-c2cc(NC(=O)c3ccc(C)c(Nc4nccc(-c5cccnc5)n4)c3)cc(C(F)(F)F)c2)cn1 [Nilotinib] | > 10 | 0
27 | CC1(C)NC(=O)N(c2ccc([N+](=O)[O-])c(C(F)(F)F)c2)C1=O [Nilutamide] | > 10 | 0
28 | COC(=O)c1ccc2c(C(=Nc3ccc(N(C)C(=O)CN4CCN(C)CC4)cc3)c3ccccc3)c(O)[nH]c2c1 [Nintedanib] | 2.56 | 9.7
29 | NC(=O)c1cccc2cn(-c3ccc([C@@H]4CCCNC4)cc3)nc12 [Niraparib] | > 10 | 0.8
30 | CC(O)c1cc(C(=O)N[C@@H](C)Cn2ccc(-c3ccc(C#N)c(Cl)c3)n2)n[nH]1 (stereo partly specified) [ODM-201] | > 2.5 | 0
31 | CC(=O)c1cnc2ccc(-c3cc(Cl)c(O)c(Cl)c3)nc2c1N[C@H]1CC[C@H](CN(C)C)CC1 [OTS167] | > 1 | 2.9
32 | O=C(c1cc(Cc2n[nH]c(=O)c3ccccc23)ccc1F)N1CCN(C(=O)C2CC2)CC1 [Olaparib] | > 10 | 2.1
33 | C=CC(=O)Nc1cccc(Oc2nc(Nc3ccc(N4CCN(C)CC4)cc3)nc3ccsc23)c1 [Olmutinib] | > 1 | 0
34 | COC(=O)C[C@](O)(CCCC(C)(C)O)C(=O)O[C@@H]1C(OC)=C[C@]23CCCN2CCc2cc4c(cc2[C@H]13)OCO4 [Omacetaxine] | 0.219 | 18.6
35 | CC1(C)CC[C@]2(NC(=O)C(C)(F)F)CC[C@]3(C)[C@H](C(=O)C=C4[C@@]5(C)C=C(C#N)C(=O)C(C)(C)[C@@H]5CC[C@]43C)[C@@H]2C1 [Omaveloxolone] | 3.77 | 4.7
36 | COc1ncc(-c2ccc3nccc(-c4ccnnc4)c3c2)cc1NS(=O)(=O)c1ccc(F)cc1F [Omipalisib] | 0.0979 | 11.6
37 | CC(C)c1cc(C(=O)N2Cc3ccc(CN4CCN(C)CC4)cc3C2)c(O)cc1O [Onalespib] | 0.0904 | 12.5
38 | COC[C@H](NC(=O)c1cnc(C)s1)C(=O)N[C@@H](COC)C(=O)N[C@@H](Cc1ccccc1)C(=O)[C@@]1(C)CO1 [Oprozomib] | 0.304 | 10
39 | CNC(=O)c1ccc2cc([C@@]3(O)CCn4cncc43)ccc2c1 [Orteronel] | > 10 | 0
40 | C=CC(=O)Nc1cc(Nc2nccc(-c3cn(C)c4ccccc34)n2)c(OC)cc1N(C)CCN(C)C [Osimertinib] | > 2.5 | 1.5

Row | SMILES | absolute EC50 for viability [1] [µM] | drug sensitivity score [2]
41 | O=C(O)C(=O)O.[NH-][C@@H]1CCCC[C@H]1[NH-].[Pt+2] [Oxaliplatin] | > 100 | 0.7
42 | C=CCc1cccc(/C=N/NC(=O)CN2CCN(Cc3ccccc3)CC2)c1O [PAC-1] | > 10 | 0.5
43 | O=C(Nc1cccnc1)N1CCC(Cc2cccc(Oc3ccc(C(F)(F)F)cn3)c2)CC1 [PF-3845] | 9.93 | 0
44 | COc1ccccc1S(=O)(=O)Nc1ccc2c(c1)CN(C)C(=O)N2 [PFI-1] | > 30 | 1.9
45 | CN1CCN(c2cc(C(=O)Nc3ccc4c(c3)-c3c(c(C(N)=O)nn3-c3ccc(F)cc3)CC4)c(Cl)cn2)CC1 [PHA 408] | > 10 | 1.3
46 | O=C(Nc1cc(Cl)cc2c1[nH]c1cnccc12)c1cccnc1 [PS-1145] | > 25 | 0
47 | COc1cc(Br)c(Nc2nc(-c3c(C)nc4ncccn34)cs2)c(Br)c1 [PTC-209] | > 10 | 4
48 | CC(=O)O[C@H]1C(=O)[C@@]2(C)[C@H]([C@H](OC(=O)c3ccccc3)[C@]3(O)C[C@H](OC(=O)[C@H](O)[C@@H](NC(=O)c4ccccc4)c4ccccc4)C(C)=C1C3(C)C)[C@]1(OC(C)=O)CO[C@@H]1C[C@@H]2O [Paclitaxel] | > 1 | 2.7
49 | C1=N/C2=N/c3ccc(OCCN4CCCC4)c(c3)COC/C=C/COCc3cccc(c3)C(=C1)N2 [Pacritinib] | 3.67 | 4.7
50 | CC(=O)c1c(C)c2cnc(Nc3ccc(N4CCNCC4)cn3)nc2n(C2CCCC2)c1=O [Palbociclib] | > 10 | 2.3
51 | COc1ccc(COc2cc3oc(=O)c4cc(C(C)O)ccc4c3cc2OC)cc1 (stereo unspecified) [Palomid-529] | > 10 | 0
52 | Cc1[nH]c2ccccc2c1CCNCc1ccc(/C=C/C(=O)NO)cc1 [Panobinostat] | 0.123 | 10.2
53 | Cc1ccc(Nc2nccc(N(C)c3ccc4c(C)n(C)nc4c3)n2)cc1S(N)(=O)=O [Pazopanib] | > 10 | 2.1
54 | NC(=O)c1cnc2[nH]ccc2c1NC1C2CC3CC1CC(O)(C3)C2 (stereo unspecified) [Peficitinb] | > 2.5 | 1.7
55 | Nc1nc2[nH]cc(CCc3ccc(C(=O)N[C@@H](CCC(=O)O)C(=O)O)cc3)c2c(=O)[nH]1 [Pemetrexed] | > 10 | 0.7
56 | OC[C@H]1O[C@@H](n2cnc3c2N=CNC[C@H]3O)C[C@@H]1O [Pentostatin] | > 10 | 0.4
57 | CCCCCCCCCCCCCCCCCCOP(=O)([O-])OC1CC[N+](C)(C)CC1 [Perifosine] | > 2.5 | 0
58 | NS(=O)(=O)OC[C@@H]1C[C@@H](n2ccc3c(N[C@H]4CCc5ccccc54)ncnc32)C[C@@H]1O [Pevonedistat] | > 10 | 5.4
